Experimental data published in ChEMBL document CHEMBL1137267, “Novel aminobenzimidazoles as selective MCH-R1 antagonists for the treatment of metabolic diseases” (Bioorg Med Chem Lett, 2006).
Calls of active or inactive are those of the source. The calls are words filed in the database; no cut-off is given here.

Columns and labels:
[1] = target: Melanin-concentrating hormone receptor 2 (Homo sapiens) (UniProt Q969V1); test: Binding activity against human MCH-R2
[2] = AUC in rats following 10 mg/kg peroral dose; type: ADME, organism-based; design: dose 10 mg/kg, route oral; conditions: rat, plasma, po
[3] = target: T1, Melanin-concentrating hormone receptor 1 (Homo sapiens, UniProt Q99705); test: Inhibition of MCH-mediated calcium influx into CHO cells expressing human MCH-R1by FLIPR assay; type: functional, cell-based
Mus musculus [4] = test: Inhibition of ex vivo MCH-ADO binding in mice 24 hours after 30 mg/kg peroral dose; type: functional; conditions: route oral
Mus musculus [5] = test: Inhibition of ex vivo MCH-ADO binding in mice 6 hours after 30mg/kg peroral dose; type: functional; conditions: po
[6] = target: T1, Melanin-concentrating hormone receptor 1; test: Binding activity against human MCH-R1
Mus musculus [7] = organism: Mus musculus; test: Inhibition of cumulative food intake by fasted DIO mice at 24 hours; type: functional
Mus musculus [8] = organism: Mus musculus; test: Inhibition of cumulative food intake by fasted DIO mice at 6 hours; type: functional
Mus musculus [9] = organism: Mus musculus; test: Inhibition of cumulative food intake by fasted DIO mice at 2 hours; type: functional
Mus musculus [10] = organism: Mus musculus; test: Inhibition of cumulative food intake by fasted DIO mice at 4 hours; type: functional

T1 sequence (Q99705 whole entry): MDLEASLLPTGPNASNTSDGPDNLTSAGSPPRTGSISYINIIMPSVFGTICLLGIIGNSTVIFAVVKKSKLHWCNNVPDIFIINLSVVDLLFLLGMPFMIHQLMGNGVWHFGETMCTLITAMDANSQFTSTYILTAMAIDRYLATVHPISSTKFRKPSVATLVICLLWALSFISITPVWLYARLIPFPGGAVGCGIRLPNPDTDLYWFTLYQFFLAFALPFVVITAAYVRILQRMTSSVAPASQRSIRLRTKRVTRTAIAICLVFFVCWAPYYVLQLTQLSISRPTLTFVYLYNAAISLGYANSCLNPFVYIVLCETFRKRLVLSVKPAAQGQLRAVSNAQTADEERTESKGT
Sequence of Melanin-concentrating hormone receptor 2 (Homo sapiens) (Q969V1 whole entry): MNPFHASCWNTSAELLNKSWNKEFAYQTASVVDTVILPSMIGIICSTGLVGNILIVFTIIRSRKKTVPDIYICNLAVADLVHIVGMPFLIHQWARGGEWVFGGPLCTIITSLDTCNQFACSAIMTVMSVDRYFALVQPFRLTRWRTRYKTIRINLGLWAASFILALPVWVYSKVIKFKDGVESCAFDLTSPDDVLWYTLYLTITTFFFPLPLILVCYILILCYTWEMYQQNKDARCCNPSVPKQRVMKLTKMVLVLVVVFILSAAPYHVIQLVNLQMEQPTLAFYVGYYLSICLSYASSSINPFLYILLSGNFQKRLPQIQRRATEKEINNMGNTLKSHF

Row | Structure (SMILES) | inhibition [1] | Ki [6] [nM] | inhibition in vivo at 30 mg/kg (Mus musculus [4]) [%] | inhibition in vivo at 30 mg/kg (Mus musculus [5]) [%] | other results
1 | CN1CCN(CCCN(c2nc3cc(F)c(F)cc3[nH]2)[C@@H]2CCC3(c4cccc(CN5CCN(C)CC5)c4)C[C@@H]3C2)CC1 (single isomer, unassigned) | inactive |  |  |  | 
2 | CN1CCN(CCCN(c2nc3cc(F)c(F)cc3[nH]2)[C@@H]2CCC3(c4cccc(CN5CCOCC5)c4)C[C@@H]3C2)CC1 (single isomer, unassigned) | inactive | 21.3 |  |  | 
3 | CN1CCN(CCCN(c2nc3cc(F)c(F)cc3[nH]2)[C@@H]2CCC3(c4cccc(CN5CCCCC5)c4)C[C@@H]3C2)CC1 (single isomer, unassigned) | inactive |  |  |  | 
4 | CN1CCN(CCCN(c2nc3cc(F)c(Cl)cc3[nH]2)[C@@H]2CC[C@]3(c4cccc(C#N)c4)C[C@H]23)CC1 | inactive |  | 77 | 92 | Inhibition (Mus musculus [7]): 5%; Inhibition (Mus musculus [8]): 21%; Kb [3]: 10 nM; Inhibition (Mus musculus [9]): 13%; Inhibition (Mus musculus [10]): 19%
5 | CN1CCN(CCCN(c2nc3cc(F)c(F)cc3[nH]2)[C@@H]2CCC3(c4cccc(C#N)c4)C[C@@H]3C2)CC1 (single isomer, unassigned) | inactive |  | 17 | 37 | AUC [2]: 293 ng·h/mL
6 | CO/N=C/c1cccc([C@]23CC[C@@H](N(CCCN4CCN(C)CC4)c4nc5cc(F)c(F)cc5[nH]4)C[C@H]2C3)c1 | inactive | 28.2 |  |  | 
7 | CN1CCN(CCCN(c2nc3cc(F)c(F)cc3[nH]2)[C@@H]2CC[C@]3(c4cccc(CN5CCC[C@H]5CO)c4)C[C@@H]3C2)CC1 | inactive |  |  |  | 
8 | CN(C)Cc1cccc(C23CC[C@@H](N(CCCN4CCN(C)CC4)c4nc5cc(F)c(F)cc5[nH]4)C[C@H]2C3)c1 (single isomer, unassigned) | inactive | 328 |  |  | 
9 | CN1CCN(CCCN(c2nc3cc(F)c(Cl)cc3[nH]2)[C@@H]2CC[C@]3(c4ccc(C#N)cc4)C[C@H]23)CC1 | inactive |  | 81 | 100 | 
10 | CC(C)(C)OC(=O)N1CCC(CN(c2nc3cc(Cl)c(Cl)cc3[nH]2)[C@@H]2CCC3(c4cccc(C#N)c4)C[C@@H]3C2)CC1 (single isomer, unassigned) | inactive | 1140 |  |  | 
11 | CN1CCN(CCCN(c2nc3cc(F)c(F)cc3[nH]2)[C@@H]2CCC3(c4cccc(CO)c4)C[C@@H]3C2)CC1 (single isomer, unassigned) | inactive |  |  |  | 
12 | CN1CCN(CCCN(c2nc3cc(F)c(F)cc3[nH]2)[C@@H]2CCC3(c4cccc(CN5CCCC5)c4)C[C@@H]3C2)CC1 (single isomer, unassigned) | inactive | 25.7 |  |  | 
13 | CN1CCN(CCCN(c2nc3cc(F)c(F)cc3[nH]2)[C@@H]2CC[C@]3(c4cccc(CN5CC[C@H](O)C5)c4)C[C@@H]3C2)CC1 | inactive | 441 |  |  | 
14 | CN1CCN(CCCN(c2nc3cc(Cl)c(Cl)cc3[nH]2)[C@@H]2CCC3(c4cccc(C#N)c4)C[C@@H]3C2)CC1 (single isomer, unassigned) | inactive |  | 97 | 81 | Inhibition (Mus musculus [7]): 9%; AUC [2]: 965 ng·h/mL; Inhibition (Mus musculus [8]): 18%; Inhibition (Mus musculus [9]): 12%; Inhibition (Mus musculus [10]): 19%
15 | CS(=O)(=O)N1CCC(CN(c2nc3cc(F)c(F)cc3[nH]2)[C@@H]2CCC3(c4cccc(C#N)c4)C[C@@H]3C2)CC1 (single isomer, unassigned) | inactive | 27 | 0 | 0 | AUC [2]: 350 ng·h/mL

Now from value to compound, other results behind:

Row | inhibition [1] | Ki [6] [nM] | Structure (SMILES) | inhibition in vivo at 30 mg/kg (Mus musculus [4]) [%] | inhibition in vivo at 30 mg/kg (Mus musculus [5]) [%] | other results
16 |  | 8.6 | CN1CCN(CCCN(c2nc3cc(F)c(C(F)(F)F)cc3[nH]2)[C@@H]2CC[C@]3(c4ccc(C#N)cc4)C[C@H]23)CC1 | 94 | 100 | AUC [2]: 2800 ng·h/mL; Kb [3]: 43 nM
17 | inactive | 6.7 | CS(=O)(=O)N1CCC(CN(c2nc3cc(F)c(Cl)cc3[nH]2)[C@@H]2CCC3(c4cccc(C#N)c4)C[C@@H]3C2)CC1 (single isomer, unassigned) |  |  | 
18 | inactive | 11.4 | CN1CCN(CCCN(c2nc3cc(Cl)c(Cl)cc3[nH]2)[C@@H]2CC[C@]3(c4ccc(C#N)cc4)C[C@H]23)CC1 |  |  | 
19 | inactive | 14.2 | CN1CCN(CCCN(c2nc3cc(Cl)c(Cl)cc3[nH]2)[C@@H]2CCC3(c4cccc(CN5CCOCC5)c4)C[C@@H]3C2)CC1 (single isomer, unassigned) |  |  | 
20 | inactive | 20.7 | CN1CCN(CCCN(c2nc3cc(F)c(F)cc3[nH]2)[C@@H]2CC[C@]3(c4cccc(C#N)c4)C[C@H]23)CC1 | 33 | 75 | AUC [2]: 1490 ng·h/mL
21 |  | 5.6 | CN1CCN(CCCN(c2nc3cc(Cl)c(F)cc3[nH]2)[C@@H]2CC[C@]3(c4cccc(C#N)c4)C[C@H]23)CC1 |  |  | AUC [2]: 1920 ng·h/mL
22 | inactive | 13.7 | CN1CCN(CCCN(c2nc3cc(Cl)c(Cl)cc3[nH]2)[C@@H]2CCC3(c4cccc(C=O)c4)C[C@@H]3C2)CC1 (single isomer, unassigned) |  |  | 
23 | inactive | 6.8 | CN1CCN(CCCN(c2nc3cc(Cl)c(Cl)cc3[nH]2)[C@@H]2CC[C@]3(c4cccc(C#N)c4)C[C@H]23)CC1 | 51 | 97 | Kb [3]: 20 nM
24 | inactive | 1.5 | CS(=O)(=O)N1CCC(CN(c2nc3cc(Cl)c(Cl)cc3[nH]2)[C@@H]2CCC3(c4cccc(C#N)c4)C[C@@H]3C2)CC1 (single isomer, unassigned) | 0 | 12 | 
25 |  | 4.9 | CN1CCN(CCCN(c2nc3cc(Cl)c(F)cc3[nH]2)[C@@H]2CC[C@]3(c4ccc(C#N)cc4)C[C@H]23)CC1 |  |  | 
26 | inactive | 16.3 | CN1CCN(CCCN(c2nc3cc(F)c(F)cc3[nH]2)[C@@H]2CCC3(c4cccc(C=O)c4)C[C@@H]3C2)CC1 (single isomer, unassigned) |  |  | 
27 | inactive | 6.2 | CN1CCN(CCCN(c2nc3cc(Cl)c(F)cc3[nH]2)[C@@H]2CCC3(c4cccc(C#N)c4)C[C@@H]3C2)CC1 (single isomer, unassigned) |  |  | 
28 | inactive | 4.9 | CN(C)Cc1cccc(C23CC[C@@H](N(CCCN4CCN(C)CC4)c4nc5cc(Cl)c(Cl)cc5[nH]4)C[C@H]2C3)c1 (single isomer, unassigned) |  |  | 
